Each block holds one molecule with its values, some of them ahead of it.
What was measured:
[1] = test system: synovial cell line E11 cells; test: EDG2 gene expression in PMA-stimulated E11 cells (quantitative real-time PCR); format: cell-based, human; details: PMA 10 ng/ml, from 2 hours to 12 hours after addition, n=4
Description: To analyze the expression of the four LPA receptors examined in Example 10 in joint tissue, an expression quantitation analysis by quantitative real-time PCR was performed on articular cartilages and synovial tissues of knee OA patients. The method used was in accordance with Example 10. Total RNA was extracted from each tissue (articular cartilage n=4, synovial membrane n=3) using Isogen (Nippon Gene), and reverse transcription was performed on 500 ng of total RNA using Multiscribe reverse transcriptase (Applied biosystems) and a random hexamer, whereby a cDNA was obtained. Quantitation of the LPA receptor genes was performed using QuantiTect STBR Green PCR (Qiagen) on the ABI PRISM 7700 sequence detection system (Applied biosystems) as directed in the documentation attached. The number of copies of each gene was calculated using a working curve. The amount of each gene was standardized by being divided by the number of copies of the G3PDH gene. A Toyobo product was used as the primer for the G3PDH gene. […] The amount of the EDG2 gene expressed was higher in synovial membrane at a level about 10 times as high as in articular cartilage. […]
The method used is described below. […] In these total RNAs, the amount expressed of the EDG2 gene relative to G3PDH was measured in accordance with the method described in Example 11. […]

[2] = test system: EDG2 gene transcription activity (i-EDG2-09 region); test: i-EDG2-09 luciferase reporter assay in PMA-stimulated E11 cells; format: cell-based, human; details: both constructs (G allele and A allele), 10 ng/ml PMA, 5 hours after stimulation
Source text: An AP-1-binding motif described in a report by Duncliffe et al. [Immunity. […] 28; 276(52):48871-8.] is present 11 to 16 by upstream. The existence of a transcriptional factor-binding motif where AP-1 and NFAT are located in tandem is known in a plurality of genes [Macian F, Lopez-Rodriguez C and Rao A., Oncogene. 2001 Apr. 30; 20(19):2476-89. Review.]. Meanwhile, in the surrounding sequence, including i-EDG2-12, no distinct transcriptional factor binding sequence was found. […] Oligonucleotides (sense strand and antisense strand) wherein 4 bp at the restriction endonuclease NheI adhesion end is added on the 5′ side of a region centering at i-EDG2-09, and comprising the AP-1 and NFAT-binding motifs (a region at −2809 to −2839 from the transcription initiation point of EDG2), and 4 bp at the XbaI adhesion end is added on the 3′ side, were prepared for both alleles of i-EDG2-09 (G or A). After these oligonucleotides were converted to double-stranded DNAs for each allele, reporter constructs wherein each allele was integrated in tandem 5 times in the NheI site of the pGL3-promoter vector (Promega), which is a luciferase reporter vector, while retaining the orientation were prepared for G allele and A allele. […] Five hours after the stimulation, the cells were solubilized, and luciferase activity was measured using the PicaGene Dual SeaPansy System (Toyo Ink). […]

[3] = test system: transcriptional factor AP-1; test: AP-1 cis-reporter luciferase assay in PMA-stimulated E11 cells; format: cell-based, human; details: 0.1, 1 and 10 ng/ml PMA, 24 hours after stimulation, n=2
Source text: Because the EDG2 gene is an LPA receptor that is dominant in OA synovial membrane, it was decided to perform a functional analysis of OA susceptibility polymorphs using synovial cells. E11 cells are a cell line established by immortalizing fibroblast-like cells from a rheumatoid arthritis patient synovial membrane with simian SV40 large T antigen (Abe et al, J Rheumatol. 1997 March; 24(3):420-9.). In the 5′-flanking region of EDG2, where i-EDG2-09 and 12 are present, an AP-1-binding motif is present. […] The method used is described below. The E11 cells were cultured using Dulbecco's Modified Eagle's Medium (DMEM, Sigma) containing 10% fetal bovine serum (FBS), antibiotics (100 U/ml penicillin G and 100 μg/ml streptomycin) and L-glutamine ([…]). On the day before the transfection, the E11 cells were seeded to a 24-multiwell plate to obtain a cell density of 5×10^4 cells/well. The following day, using Fugene-6 (Roche diagnostics), 200 ng of the reporter construct and 4 ng of pRL-TK (Promega) as the internal standard for correction of transfection efficiency, per well were transfected. Twenty-four after the transfection, the cells were cultured on a medium containing 0.1, 1 and 10 ng/ml PMA. Twenty-four hours after the stimulation, the cells were solubilized, and luciferase activity was measured using PicaGene Dual SeaPansy System (Toyo Ink). The number of cases was n=2.

EDG2 [4] = molecular target: T1, EDG2 (Homo sapiens, UniProt Q92633); test: IL6 gene expression in LPA-stimulated HFLS-OA treated with EDG2 antagonist; format: cell-based; design: OA patient-derived fibroblast-like synovial cells (HFLS-OA) were purchased from Cell application Co; host or cells: HFLS-OA (OA patient-derived fibroblast-like synovial cells); details: Ki16425 0, 0.3, 1, 3, 10 and 33 μM for 30 minutes, then 10 μM LPA, 2 hours, n=4
Description: Furthermore, the involvement of EDG2 in the LPA-induced inflammatory cytokine raising reaction in human OA synovial cells was analyzed using an antagonist against EDG2. […] As the EDG2 antagonist, Ki16425 (Sigma) was used. OA patient-derived fibroblast-like synovial cells (HFLS-OA) were purchased from Cell application Co. The HFLS-OA was cultured using the attached Synoviocyte growth medium. The number of passages for the cells used was 4 or 5. The HFLS-OA was seeded to a 24-well plate at a ratio of 1×10^5 cells/well, and cultured using the attached Synoviocyte growth medium until they became confluent. Twelve hours before performing LPA stimulation, the medium was replaced with Ham's F-12 (Invitrogen) medium containing 0.1% fatty acid free bovine serum albumin (Sigma). Twelve hours after the medium replacement, the cells were treated with Ki16425 (0, 0.3, 1, 3, 10 and 33 μM) for 30 minutes. Thereafter, the cells were stimulated with 10 μM LPA; 2 hours later, total RNA was extracted using ISOGEN (Nippon Gene), and the amount expressed of the IL6 gene was quantified by a method in accordance with Example 10 (n=4).

EDG2 [5] = molecular target: T1, EDG2; test: Intracellular Ca2+ concentration (FLIPR tetra) in McA-RH7777 cells stably expressing EDG2; format: cell-based; design: Dainippon Pharmaceutical Co., Ltd. (cells); host or cells: McA-RH7777; details: LPA 0.3 μM, Ki16425 10^−8 to 10^−5 M added previously
Description: A forcible expression vector comprising an ORF sequence of human EDG2 [hEDG2-pcDNA3.1(+)] was purchased from UMR cDNA Resource Center. This plasmid was introduced into McA-RH7777 (Dainippon Pharmaceutical Co., Ltd.) using Lipofectamine LTX (Invitrogen), and the cells were cultured in a medium containing Geneticin for 14 to 20 days to acquire cells that stably express EDG2.
Next, an evaluation was made using FLIPR tetra (Molecular Devices) to confirm that stimulation with LPA raised intracellular Ca concentrations via the EDG2 expressed. That is, these cells were seeded to a 384-well plate, 0.03 to 10 μM LPA (Sigma) was added to each well, and it was confirmed that rises in intracellular Ca^2+ concentration occurred. LPA dose-dependently.

EDG7 = molecular target: T2, EDG7 (Homo sapiens, UniProt Q9UBY5); details: no test described; cited from earlier work
T2 sequence (Q9UBY5 1-353): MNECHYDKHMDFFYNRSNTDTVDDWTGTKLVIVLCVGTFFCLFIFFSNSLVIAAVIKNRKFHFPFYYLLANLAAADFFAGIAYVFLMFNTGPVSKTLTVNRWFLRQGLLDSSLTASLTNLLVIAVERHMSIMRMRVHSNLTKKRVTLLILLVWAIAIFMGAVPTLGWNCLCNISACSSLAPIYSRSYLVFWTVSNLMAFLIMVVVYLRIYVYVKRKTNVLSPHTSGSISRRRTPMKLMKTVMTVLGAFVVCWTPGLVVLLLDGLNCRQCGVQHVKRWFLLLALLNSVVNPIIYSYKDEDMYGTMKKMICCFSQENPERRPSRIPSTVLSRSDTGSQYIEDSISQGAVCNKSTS

EDG2 [6] = test: EDG2 knockdown by siRNA in LPA-stimulated HFLS-OA; format: cell-based, human; details: n=4
Description: To analyze the involvement of EDG2 in the LPA-induced inflammatory cytokine raising reaction in human OA synovial cells, obtained in Example 17, an investigation using an siRNA was performed. The method used is described below. An siRNA against EDG2 was designed by utilizing an siRNA design support system available from the Takara Bio Web site (http://bio.takara.co.jp). Synthesis of the siRNA was outsourced to Takara Bio. The control siRNA used was such that the sequence of an siRNA against asporin was scrambled. OA patient-derived fibroblast-like synovial cells (HFLS-OA) were purchased from Cell application Co. The HFLS-OA was cultured using the attached Synoviocyte growth medium. The number of passages for the cells used was 4 or 5. The HFLS-OA was seeded to a 24-well plate at a ratio of 1×10^5 cells/well, and cultured using the attached Synoviocyte growth medium. The following day, the siRNA against EDG2 was introduced into the HFLS-OA to obtain a final concentration of 11 nM, using the Trans-IT-TKO transfection regent (Mirus Co.), according to the attached protocol. […] Twelve hours after the medium replacement, the cells were stimulated with 10 μM LPA; 2 hours later, total RNA was extracted using ISOGEN (Nippon Gene), and the amount of the IL6 gene expressed was quantified by a method in accordance with Example 10 (n=4).

T1 sequence (Q92633 whole entry): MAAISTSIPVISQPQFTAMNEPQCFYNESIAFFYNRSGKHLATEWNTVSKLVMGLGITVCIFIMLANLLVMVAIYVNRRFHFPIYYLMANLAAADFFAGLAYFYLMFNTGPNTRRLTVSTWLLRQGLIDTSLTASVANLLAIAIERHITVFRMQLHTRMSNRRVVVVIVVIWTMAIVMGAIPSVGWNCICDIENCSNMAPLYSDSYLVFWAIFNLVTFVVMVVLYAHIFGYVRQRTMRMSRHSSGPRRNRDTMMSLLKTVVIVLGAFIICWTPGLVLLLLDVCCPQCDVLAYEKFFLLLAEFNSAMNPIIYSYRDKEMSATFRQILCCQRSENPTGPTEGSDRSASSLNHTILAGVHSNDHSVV

Molecule: CCCCCCCCCCCCCC(=O)O[C@@H]1[C@@H](C)[C@@]2(O)[C@@H](C=C(CO)C[C@]3(O)C(=O)C(C)=C[C@@H]23)[C@@H]2C(C)(C)[C@]12OC(C)=O [PMA, phorbol 12-myristate 13-acetate]
amount expressed of the EDG2 gene relative to G3PDH [1]: rose over time
luciferase activity of i-EDG2-09 reporter constructs [2]: rose significantly
luciferase activity (AP-1 binding motif reporter) [3]: rose PMA dose-dependently

suppression of the rise in the expression of the IL6 gene by LPA (EDG2 [4]): dose-dependently
suppression of elevation of intracellular Ca2+ concentration by LPA stimulation (EDG2 [5]): suppressed dose-dependently
Molecule: Cc1noc(-c2ccc(CSCCC(=O)O)cc2)c1NC(=O)OC(C)c1ccccc1Cl (centres unmarked) [Ki16425]
antagonist activity against EDG7 (EDG7): antagonist activity

Molecule: siRNA against EDG2: siRNA used in EDG2 knockdown; sense GAAAUGAGCGCCACCUUUATT (SEQ ID NO 40), antisense UAAAGGUGGCGCUCAUUUCTT (SEQ ID NO 41) (chemistry not given here)
amount expressed of the IL6 gene, which rises in response to LPA (EDG2 [6]; siRNA 11 nM, 10 μM LPA, 2 hours): significantly suppressed
amount of EDG2 expressed (EDG2 [6]; siRNA final concentration 11 nM): significantly suppressed

— US20100239501A1, “GENE SENSITIVE TO BONE/JOINT DISEASE AND USE THEREOF” (RIKEN, priority 2007, published 2010)
